Results as given in patent publication US20220257702A1, “STABLE ALBUVIRTIDE COMPOSITIONS” (priority 2019, published 2022).

Tests used:
[1] = Stability of lyophilized Albuvirtide-PB upon storage at 6° C. (HPLC); format: physicochemical; conditions: in words
Protocol: (§1) The liquid compositions having albuvirtide and PB were then lyophilized and their stability were tested. Part of the organic solvent could be removed using reduced-pressure evaporation. Stability of Albuvirtide-PB upon lyophilization, upon storage at 25° C., 6° C. and −20° C. were tested using HPLC. The lyophilized powder of Albuvirtide-PB were kept at 25° C., 6° C. and −20° C. for certain periods of time while their purities were monitored during such periods by HPLC.

[2] = Stability of lyophilized Albuvirtide-PB upon storage at −20° C. (HPLC); format: physicochemical; conditions: in words, Table 6
Protocol: as §1

[3] = test system: HIV-1; conditions: background statement; cited from earlier work
[4] = cited from earlier work
[5] = Stability of lyophilized albuvirtide compositions upon storage at 25° C. (HPLC); format: physicochemical; conditions: in words
Protocol: as §1

albuvirtide
change in purity of albuvirtide during storage for 1 month at 6° C. ([1]; Table 5): equivalent to that during storage at 25 °C for 5 days
purity of albuvirtide during storage for 2 months at 6° C. ([1]; Table 10): barely changed
purity of albuvirtide during storage for 3 month at −20° C. [2]: barely changed
concentration at which viral entry is inhibited [3]: low nanomolar concentration
in vitro activity against HIV-1 [3]: in vitro activity against various HIV-1 strains and certain variants that are resistant to enfuvirtide (Fuzeon)
in vivo half-life [4]: long half-life
purity of albuvirtide during storage for 5 days at 25° C. ([5]; Table 9): barely changed
purity of albuvirtide during storage for 1 month at 25° C. ([5]; Table 11): barely changed
